Experimental findings from patent US9458172B2, “Pyridinyl and pyrimidinyl sulfoxide and sulfone derivatives” (priority 2012, dated 2016) are described below.

One assay relates to A2780 cells. Description: In-Vitro Cell Proliferation Assay (SRB).
The target of a further assay is NAMPT (Homo sapiens (Human), UniProt P43490). Nature of the assay: Biochemical Inhibition Assay (NAMPT enzymatic reaction, NMN quantified by mass spectrometry). As to conditions: 33 nM recombinant His-tagged NAMPT, 1 μM NAM, 30 min at rt. As to the method: Assay 1: Biochemical Inhibition Assay
NAMPT protein purification. Recombinant His-tagged NAMPT was produced in E. coli cells, purified over a Ni column, and further purified over a size-exclusion column by XTAL Biostructures.
The NAMPT Enzymatic Reaction. The NAMPT enzymatic reactions were carried out in Buffer A (50 mM Hepes pH 7.5, 50 mM NaCl, 5 mM MgCl2, and 1 mM THP) in 96-well V-bottom plates. The compound titrations were performed in a separate dilution plate by serially diluting the compounds in DMSO to make a 100× stock. […] The compound and enzyme mixture was incubated for 15 min at rt, then 10 μL of 10× substrate and co-factors in Buffer A were added to the test well to make a final concentration of 1 μM NAM, […] 5-Phospho-D-ribose 1-diphosphate (PRPP), and 2.5 mM Adenosine 5′-triphosphate (ATP). The reaction was allowed to proceed for 30 min at rt, then was quenched with the addition of 11 μL of a solution of formic acid and L-Cystathionine to make a final concentration of 1% formic acid and 10 μM L-Cystathionine. Background and signal strength was determined by addition (or non-addition) of a serial dilution of NMN to a pre-quenched enzyme and cofactor mix.
Quantification of NMN. A mass spectrometry-based assay was used to measure the NAMPT reaction product, β-nicotinamide mononucleotide (NMN), and the internal control (L-Cystathionine). NMN and L-Cystathionine were detected using the services of Biocius Lifesciences with the RapidFire system. In short, the NMN and L-Cystathionine were bound to a graphitic carbon cartridge in 0.1% formic acid, eluted in 30% acetonitrile buffer, and injected into a Sciex 4000 mass spectrometer. The components of the sample were ionized with electrospray ionization and the positive ions were detected. […] The fragments are quantified and the analyzed by the following method.
Determination of IC50 Values. First, the NMN signal was normalized to the L-Cystathionine signal by dividing the NMN signal by the L-Cystathionine signal for each well. The signal from the background wells were averaged and subtracted from the test plates.

The mark [1] stands for this setting: Homo sapiens, A2780, 72 h, read-out: Cell Proliferation (IC50).
The mark [2] stands for this setting: Homo sapiens, A2780, 72 h, read-out: Cell Proliferation (IC50), A2780 cells, 72 h, sulforhodamine B.

Each structure is given as a SMILES string. pIC50: −log10 of the molar value. Like-named read-outs stand apart in the source and are kept apart here.

NAMPT, sequence (P43490 whole entry): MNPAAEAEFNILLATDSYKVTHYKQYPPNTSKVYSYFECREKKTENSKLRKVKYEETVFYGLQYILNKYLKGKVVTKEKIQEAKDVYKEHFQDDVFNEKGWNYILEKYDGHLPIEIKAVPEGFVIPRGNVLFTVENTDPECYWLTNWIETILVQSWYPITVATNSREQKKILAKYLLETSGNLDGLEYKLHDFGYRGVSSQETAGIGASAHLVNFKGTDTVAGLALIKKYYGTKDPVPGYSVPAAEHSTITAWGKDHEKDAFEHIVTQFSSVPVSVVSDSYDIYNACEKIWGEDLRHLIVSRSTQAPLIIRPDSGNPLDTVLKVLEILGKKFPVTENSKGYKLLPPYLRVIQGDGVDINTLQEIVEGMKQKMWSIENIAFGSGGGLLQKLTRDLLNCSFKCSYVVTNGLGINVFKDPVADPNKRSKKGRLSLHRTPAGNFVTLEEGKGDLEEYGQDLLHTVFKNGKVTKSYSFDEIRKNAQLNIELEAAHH

Take `O=C(NCc1ccc(S(=O)(=O)c2cccc(OC(F)(F)F)c2)cn1)c1ccc2nccn2c1` [Example 13, Imidazo[1,2-a]pyridine-6-carboxylic acid [5-(3-trifluoromethoxy-benzenesulfonyl)-pyridin-2-ylmethyl]-amide]: the pIC50 in the assay on A2780 cells (setting [1]) is 7.87; on NAMPT, 8.07.

`O=C(NCc1ccc(S(=O)(=O)c2cc(F)cc(N3CCOCC3)c2)cn1)c1cnc2[nH]ncc2c1` [Example 85, 1H-Pyrazolo[3,4-b]pyridine-5-carboxylic acid [5-(3-fluoro-5-morpholin-4-yl-benzenesulfonyl)-pyridin-2-ylmethyl]-amide]: the figures for the pIC50 with A2780 cells (setting [1]) and on NAMPT were 8.01 and 7.48, respectively.

On to `O=C(NCc1ccc(S(=O)(=O)C2CCN(C3CCOC3)CC2)cn1)c1cc2ccncc2o1` (centres unmarked) [Example 128, N-[[5-[(1-tetrahydrofuran-3-yl-4-piperidyl)sulfonyl]-2-pyridyl]methyl]furo[2,3-c]pyridine-2-carboxamide], for which the pIC50 with A2780 cells (setting [1]) is 7.60; at NAMPT it was 7.14.

Turning to `CCS(=O)(=O)c1cccc(S(=O)(=O)c2ccc(CNC(=O)c3cc4ccncc4o3)nc2)c1` [Example 109, N-[[5-(3-ethylsulfonylphenyl)sulfonyl-2-pyridyl]methyl]furo[2,3-c]pyridine-2-carboxamide], the pIC50 in the assay on A2780 cells (setting [1]) was 7.82; at NAMPT, 8.17.

`O=C(NCc1ccc(S(=O)(=O)C2CCN(CC(F)(F)F)CC2)cn1)c1cc2cnccc2[nH]1` [Example 166, N-[[5-[[1-(2,2,2-trifluoroethyl)-4-piperidyl]sulfonyl)-2-pyridyl]methyl]-1H-pyrrolo[3,2-c]pyridine-2-carboxamide]: the figures for the pIC50 in the assay with A2780 cells (setting [1]) and at NAMPT were 7.04 and 6.65, respectively.

For the compound `O=C(NCc1ncc(S(=O)(=O)c2ccccc2)cn1)c1cnc2nccn2c1` [Example 12, Imidazo[1,2-a]pyrimidine-6-carboxylic acid (5-benzenesulfonyl-pyrimidin-2-ylmethyl)-amide], the values for the pIC50 in the assay on A2780 cells (setting [1]) and on NAMPT were 6.08 and 7.72, respectively.

On to `O=C(NCc1ccc(S(=O)(=O)N2CCN(C3CCOCC3)CC2)cn1)N1Cc2ccncc2C1` [Example 126, N-[[5-(4-tetrahydropyran-4-ylpiperazin-1-yl)sulfonyl-2-pyridyl]methyl]-1,3-dihydropyrrolo[3,4-c]pyridine-2-carboxamide], for which the figures for the pIC50 with A2780 cells (setting [1]) and at NAMPT were 7.25 and 7.16, respectively.

As to `O=C(NCc1ccc(S(=O)(=O)c2cccc(C(F)(F)F)c2)cn1)N1Cc2ccncc2C1` [Example 49, 1,3-Dihydro-pyrrolo[3,4-c]pyridine-2-carboxylic acid [5-(3-trifluoromethyl-benzenesulfonyl)-pyridin-2-ylmethyl]-amide], the pIC50 in the assay on A2780 cells (setting [1]) was 7.46; on NAMPT it was 8.43.

Turning to `O=C(NCc1ccc(S(=O)(=O)c2cccc(N3CCOCC3)c2)cn1)c1cc2ccncc2o1` [Example 123, N-[[5-(3-morpholinophenyl)sulfonyl-2-pyridyl]methyl]furo[2,3-c]pyridine-2-carboxamide], the pIC50 in the assay with A2780 cells (setting [1]) was 7.72; at NAMPT, 7.66.

Take `O=C(NCc1ccc(S(=O)(=O)c2cc(F)cc(F)c2)cn1)c1cnc2nccn2c1` [Example 2, Imidazo[1,2-a]pyrimidine-6-carboxylic acid [5-(3,5-difluoro-benzenesulfonyl)-pyridin-2-ylmethyl]-amide]: the pIC50 is 7.28 with A2780 cells (setting [1]) and 8.19 on NAMPT.

Regarding `O=C(NCc1ccc(S(=O)(=O)c2ccc(N3CCOCC3)cc2)cn1)c1ccc2nccn2c1` [Example 30, Imidazo[1,2-a]pyridine-6-carboxylic acid (5-(4-morpholin-4-yl-benzenesulfonyl)-pyridin-2-ylmethyl]-amide], the pIC50 was 8.80 in the assay with A2780 cells (setting [2]) and 8.14 at NAMPT.

`CCCn1cc(S(=O)(=O)c2ccc(CNC(=O)c3cc4cnccc4[nH]3)nc2)cn1` [Example 171, N-[[5-(1-propylpyrazol-4-yl)sulfonyl-2-pyridyl]methyl]-1H-pyrrolo[3,2-c]pyridine-2-carboxamide]: the pIC50 with A2780 cells (setting [2]) is 7.29; on NAMPT, 7.21.

For `CN(C)c1ncc(S(=O)(=O)c2ccc(CNC(=O)c3ccc4nccn4c3)nc2)s1` [Example 74, Imidazo[1,2-a]pyridine-6-carboxylic acid [5-(2-dimethylamino-thiazole-5-sulfonyl)-pyridin-2-ylmethyl]-amide], the pIC50 in the assay with A2780 cells (setting [1]) was 8.62; on NAMPT, 8.11.

Consider `CCS(=O)(=O)c1cccc(S(=O)(=O)c2ccc(CNC(=O)c3cnc4[nH]ncc4c3)nc2)c1` [Example 106, 1H-Pyrazolo[3,4-b]pyridine-5-carboxylic acid [5-(3-ethanesulfonyl-benzenesulfonyl)-pyridin-2-ylmethyl]-amide], for which the results for the pIC50 with A2780 cells (setting [1]) and at NAMPT were 6.48 and 6.87, respectively.

Take `Cc1ccc(S(=O)(=O)c2ccc(CNC(=O)c3cc4ccncc4s3)nc2)cn1` [Example 95, Thieno[2,3-c]pyridine-2-carboxylic acid [5-(6-methyl-pyridine-3-sulfonyl)-pyridin-2-ylmethyl]-amide]: the figures for the pIC50 in the assay with A2780 cells (setting [1]) and at NAMPT were 6.63 and 7.42, respectively.

In the case of `O=C(NCc1ccc(S(=O)(=O)c2cccc(C(F)(F)F)c2)cn1)c1cc2cnccc2[nH]1` [Example 17, 1H-Pyrrolo[3,2-c]pyridine-2-carboxylic acid [5-(3-trifluoromethyl-benzenesulfonyl)-pyridin-2-ylmethyl]-amide], the pIC50 in the assay with A2780 cells (setting [1]) is 8.04; on NAMPT, 7.72.

`O=C(NCc1ccc([S+]([O-])c2cc(F)cc(F)c2)cn1)c1cnc2nccn2c1` (racemic) [Example 24, Imidazo[1,2-a]pyrimidine-6-carboxylic acid [5-(3,5-difluoro-benzenesulfinyl)-pyridin-2-ylmethyl]-amide (racemic)]: the pIC50 with A2780 cells (setting [1]) was 6.56; on NAMPT it was 7.79.

As to `CC(C)CN1CCC([S+]([O-])c2ccc(CNC(=O)c3ccc4nccn4c3)nc2)CC1` (centres unmarked) [Example 172, N-[[5-[(1-isobutyl-4-piperidyl)sulfinyl]-2-pyridyl]methyl]imidazo[1,2-a]pyridine-6-carboxamide], the results for the pIC50 in the assay with A2780 cells (setting [1]) and on NAMPT were 6.97 and 6.60, respectively.

Turning to `O=C(NCc1ccc(S(=O)(=O)c2cccc(N3CCOCC3)c2)cn1)c1ccc2nccn2c1` [Example 154, N-[[5-(3-morpholinophenyl)sulfonyl-2-pyridyl]methyl]imidazo[1,2-a]pyridine-6-carboxamide], the pIC50 is 7.33 in the assay with A2780 cells (setting [1]) and 7.40 at NAMPT.

For the compound `O=C(NCc1ccc(S(=O)(=O)c2cncc(Cl)c2)cn1)c1cc2ccncc2o1` [Example 169, N-[[5-[(5-chloro-3-pyridyl)sulfonyl]-2-pyridyl]methyl]furo[2,3-c]pyridine-2-carboxamide], the pIC50 with A2780 cells (setting [1]) was 7.57; at NAMPT, 7.18.

Turning to `O=C(NCc1ccc(S(=O)(=O)c2ccc(N3CCOCC3)nc2)cn1)c1cc2ccncc2s1` [Example 54, Thieno[2,3-c]pyridine-2-carboxylic acid [5-(6-morpholin-4-yl-pyridine-3-sulfonyl)-pyridin-2-ylmethyl]-amide], the values for the pIC50 in the assay with A2780 cells (setting [1]) and on NAMPT were 9.30 and 8.77, respectively.

With `O=C(NCc1ccc([S+]([O-])c2cc(F)cc(F)c2)cn1)N1Cc2ccncc2C1` (single isomer, unassigned; enantiomer 2) [Example 160, N-[[5-(3,5-difluorophenyl)sulfinyl-2-pyridyl]methyl]-1,3-dihydropyrrolo[3,4-c]pyridine-2-carboxamide (enantiomer 2)], the pIC50 is 7.71 with A2780 cells (read-out: Cell Proliferation (IC50), A2780 cells, 72 h, sulforhodamine B) and 7.70 at NAMPT.

For the compound `O=C(NCc1ccc([S+]([O-])c2cc(F)cc(F)c2)cn1)N1Cc2ccncc2C1` (centres unmarked) [Example 116, N-[[5-(3,5-difluorophenyl)sulfinyl-2-pyridyl]methyl]-1,3-dihydropyrrolo[3,4-c]pyridine-2-carboxamide], the pIC50 with A2780 cells (setting [2]) is 8.05; at NAMPT, 7.81.

For the compound `O=C(NCc1ccc(S(=O)(=O)N2CCC(N3CCCC3)CC2)cn1)c1cc2ccncc2o1` [Example 91, Furo[2,3-c]pyridine-2-carboxylic acid [5-(4-pyrrolidin-1-yl-piperidine-1-sulfonyl)-pyridin-2-ylmethyl]-amide], the pIC50 with A2780 cells (setting [1]) was 7.34; on NAMPT it was 7.32.

`O=C(NCc1ccc(S(=O)(=O)C2CCN(CC(F)(F)F)CC2)cn1)c1ccc2nccn2c1` [Example 152, N-[[5-[[1-(2,2,2-trifluoroethyl)-4-piperidyl]sulfonyl]-2-pyridyl]methyl]imidazo[1,2-a]pyridine-6-carboxamide]: the pIC50 was 6.97 in the assay on A2780 cells (setting [1]) and 6.61 on NAMPT.
